The target in one experiment is androgen receptor (Homo sapiens, UniProt P10275). The experiment in a line: PSA promoter luciferase reporter assay, 22RV1 AR-luciferase reporter cells. The following applies: for anti-androgen receptor (AR) activity, luciferase reporter assay: 22RV1 AR-luciferase reporter cells, with DHT; for anti-androgen receptor activity, luciferase reporter assay: in present of DHT 10 nM. The experiment is classed as cell-based.

Experiment [1] deals with LNCaP (androgen dependent) xenograft tumor. The experiment in a line: LNCaP xenograft tumor growth. Format: in vivo, nude mice. The following applies: S6, F5, PE1 each 300 mg/kg bid; enzalutamide 10 mg/kg qd; two weeks. As for the experimental part: (§1) In another animal experiment, we compared the anti-prostate tumor growth effect of S6, F5, and PE1 (each 300 mg/kg bid) to enzalutamide (10 mg/kg qd) (targeting on AR) on LNCaP (androgen dependent) xenograft tumor and Du145 xenograft tumor in nude mice for two weeks.

The test system of another experiment is DU145 xenograft. The experiment is described as follows: DU145 xenograft tumor growth. Format: in vivo, mouse. The following applies: nude mice. As for the experimental part: as §1
The next experiment has as its system 22RV1 xenograft. The experiment in a line: 22RV1 xenograft tumor growth. The experiment is classed as in vivo, mouse. The following applies: gallic acid 23 mg/kg BID orally, nude mice. An excerpt: E5 may have higher selectively to inhibit prostate cancer with AR protein in vivo. I2 may have higher selectively to inhibit prostate cancer without AR protein expression in vivo.

“Also recorded” adds a separate entry of the source.

Chain of androgen receptor (P10275 whole entry): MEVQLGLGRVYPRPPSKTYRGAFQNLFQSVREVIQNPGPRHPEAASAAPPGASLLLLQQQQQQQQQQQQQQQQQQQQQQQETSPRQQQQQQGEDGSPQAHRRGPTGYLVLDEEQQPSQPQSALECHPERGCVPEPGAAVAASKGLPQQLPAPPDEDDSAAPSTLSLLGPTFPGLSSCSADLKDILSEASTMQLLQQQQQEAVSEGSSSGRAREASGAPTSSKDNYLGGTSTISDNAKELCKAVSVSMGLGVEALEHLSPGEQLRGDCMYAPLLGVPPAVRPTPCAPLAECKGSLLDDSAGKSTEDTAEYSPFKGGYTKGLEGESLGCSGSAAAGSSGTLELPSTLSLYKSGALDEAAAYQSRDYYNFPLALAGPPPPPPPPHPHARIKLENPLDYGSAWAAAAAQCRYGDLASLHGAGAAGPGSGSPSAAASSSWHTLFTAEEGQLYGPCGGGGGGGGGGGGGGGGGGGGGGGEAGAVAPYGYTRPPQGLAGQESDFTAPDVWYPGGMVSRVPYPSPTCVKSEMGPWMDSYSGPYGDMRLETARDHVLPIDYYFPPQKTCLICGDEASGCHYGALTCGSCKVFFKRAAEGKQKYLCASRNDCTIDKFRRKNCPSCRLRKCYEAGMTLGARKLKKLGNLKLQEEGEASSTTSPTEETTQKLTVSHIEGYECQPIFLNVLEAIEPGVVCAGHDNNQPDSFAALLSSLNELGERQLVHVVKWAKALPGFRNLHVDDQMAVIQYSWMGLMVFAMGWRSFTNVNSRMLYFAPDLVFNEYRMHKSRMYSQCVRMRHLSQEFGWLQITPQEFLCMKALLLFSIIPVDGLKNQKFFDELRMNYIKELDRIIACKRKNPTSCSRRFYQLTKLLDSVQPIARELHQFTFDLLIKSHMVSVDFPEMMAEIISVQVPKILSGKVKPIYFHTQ
Protocol for androgen receptor: 22RV1 prostate cancer cells were used in the screening study. 22RV1 cell lines were stably transfected with PSA promoter-PGL4.2 luciferase reporter. 25 nM) H T was used to induce androgen receptor for 24 h.
22RV1 androgen reporter cells were treated with herbal extracts at 30, 100, 300, and 1000 μg/ml for 24 h in a 37° C.-CO2 incubator with or without 25 nM DHT which was used androgen receptor activity. Cells were lysed using luciferase lysis buffer after which luciferase buffer with luciferin was added to generate luminescence. Luminescence was recorded using a luminescence microplate reader.

In the case of `Oc1cc(O)c2c(c1)O[C@H](c1cc(O)c(O)c(O)c1)[C@H](O)C2` [Epigallocatechin], at androgen receptor, the “anti-androgen receptor (AR) activity, luciferase reporter assay” value (“anti-androgen receptor (AR) activity” below) is given as “showed inhibition; also recorded: different potency on inhibiting AR” and the “anti-androgen receptor activity, luciferase reporter assay” value is given as “highest potency against AR”.
Regarding `CNC(=O)c1ccc(N2C(=S)N(c3ccc(C#N)c(C(F)(F)F)c3)C(=O)C2(C)C)cc1F` [enzalutamide, reference compound], the “growth of LNCaP xenograft tumor” value in experiment [1] was “effectively inhibited”. For the same compound, the “growth of Du145 xenograft tumor” value in the experiment on DU145 xenograft (S6, F5, PE1 each 300 mg/kg bid, enzalutamide 10 mg/kg qd, two weeks) is reported as “not Du145 tumors”.
For `O=C(O)c1cc(O)c(O)c(O)c1` [gallic acid], the “in vivo anti-tumor activity, 22RV1 tumor” value in the experiment with 22RV1 xenograft is “exhibit in vivo anti-tumor activity”. In the experiment with DU145 xenograft (gallic acid 23 mg/kg BID orally), the “in vivo anti-tumor activity, Du145 tumor” value is given as “exhibit in vivo anti-tumor activity”.
`Oc1cc(O)c2c(c1)O[C@H](c1cc(O)c(O)c(O)c1)[C@@H](O)C2` [gallocatechin]: on androgen receptor, the “anti-androgen receptor (AR) activity” value was “showed inhibition; also recorded: different potency on inhibiting AR” and the “anti-androgen receptor activity, luciferase reporter assay” value is “found to have anti-androgen receptor activity”.
With `O=C(O)c1cc(O)c2c(c1)[C@H]([C@H]1c3cc(CO)cc(O)c3C(=O)c3c(O[C@@H]4O[C@H](CO)[C@@H](O)[C@H](O)[C@H]4O)cccc31)c1cccc(O[C@@H]3O[C@H](CO)[C@@H](O)[C@H](O)[C@H]3O)c1C2=O` [sennoside C], on androgen receptor, the “anti-androgen receptor (AR) activity” value is reported as “no”.
Turning to `O=C(O)c1cc(O)c2c(c1)[C@H]([C@@H]1c3cc(CO)cc(O)c3C(=O)c3c(O[C@@H]4O[C@H](CO)[C@@H](O)[C@H](O)[C@H]4O)cccc31)c1cccc(O[C@@H]3O[C@H](CO)[C@@H](O)[C@H](O)[C@H]3O)c1C2=O` [sennoside D], the “anti-androgen receptor (AR) activity” value at androgen receptor is “no”.

The values above are taken from patent US11839639B2, “Inhibition of androgen receptor by extracts of medicinal herbs and compositions thereof” (YALE UNIVERSITY, priority 2017, dated 2023).
